Test results taken from article PMC11378297, “Discovery and Profiling of New Multimodal Phenylglycinamide Derivatives as Potent Antiseizure and Antinociceptive Drug Candidates” (ACS Chemical Neuroscience, 2024).

How the values were obtained:
[1] = thermogravimetric analysis and differential scanning calorimetry; assay type: physicochemical
From the text: Bearing in mind that the active pharmaceutical ingredients are often exposed to heat upon a final dosage form manufacturing (e.g., granulation, hot melt-extrusion, and coating), high thermal stability of the compound is a favorable feature predisposing the molecule (R)-32 for a further development. Another property that may considerably slow down the process of bringing a new molecule to the market is limited solubility in water. Thus, a simple approach to verify if it would be possible to overcome this drawback by the physical modification of its crystalline structure was also undertaken. […] The melting endotherm of crystalline (R)-32 had the onset ca. 115 °C and the minimum at 126 °C. After a simple thermal treatment such as cooling of the melt, the amorphous form of (R)-32 was obtained. Its glass transition temperature was relatively low, ca. 30 °C, which means that (R)-32 should be coprocessed with excipients of antiplasticizing properties to develop enabling formulations stable at ambient storage conditions.
A Mettler Toledo thermogravimetric analysis/SDTA 851^e apparatus calibrated with indium, zinc, and aluminum was used. Its accuracy was equal to 10^–6 g. The samples were placed in an open aluminum crucible. The measurements were performed in Ar 5.0 (50 mL/min). The temperature ranged from 25 to 400 °C. The constant heating rate of 10 °C/min was applied. […]

[2] = PAMPA (Precoated PAMPA Plate System Gentest) passive permeability; assay type: in vitro ADME
[3] = tested on: REDs in the medial entorhinal cortex of brain slices from kainate-treated rats; test: spontaneous recurrent epileptiform discharges (REDs) in brain slices of KA-rats; parameters: species or system rat; conditions: 40, 80 and 120 μM, 20 min bath exposure
Protocol: The effects of (R)-32 on spontaneous recurrent epileptiform discharges (REDs) recorded in the medial entorhinal cortex of a brain slices obtained from rats that had previously experienced kainate-induced status epilepticus (KA-rats) were evaluated at 40, 80, and 120 μM. […] Finally, the average duration, frequency, and amplitude of REDs after a 20 min exposure, and normalized to baseline measurements, is illustrated in Figure 4C for 40, 80, and 120 μM (R)-32. […] Accordingly, no EC50 quantifications were performed.
Figure 4 (R)-32 fails to affect REDs (recurrent epileptiform discharges) at any concentrations tested. (A) Representative traces of REDs recorded before (baseline), in the presence of 80 μM (R)-32, and 20 min after washout. […]
Evaluation of spontaneous recurrent electrographic discharges (REDs) from the medial entorhinal cortex in acute brain slices obtained from Sprague–Dawley rats that had previously experienced kainate-induced status epilepticus (KA-rats) were performed as previously described (West et al., 2018).[90] […] Extracellular field excitatory postsynaptic potentials (fEPSPs) were then recorded from layer II of the medial entorhinal cortex from 8 brain slices simultaneously. Spontaneous REDs were recorded for a 20 min baseline period. […] Data were acquired using pClamp 10.4.2 and analyzed using the included clampfit 10.4 software. […]

Structure (SMILES): CC(=O)N[C@@H](C(=O)N1CCN(c2cccc(OC(F)(F)F)c2)CC1)c1ccccc1 [(R)-32, (R)-N-(2-Oxo-1-phenyl-2-(4-(3-(trifluoromethoxy)phenyl)piperazin-1-yl)ethyl)acetamide]
- thermally stable while heating up to (weight loss noted, TGA) ([1]; 10 °C/min): 190 °C
- glass transition temperature of the amorphous form (DSC) ([1]; after cooling of the melt): ca. 30 °C
- Pe relative to that of caffeine [2]: approximately 70%
- Papp ([2]; passive blood–brain barrier permeability model, read-out: permeability coefficient (Pe)): 2.42 ×10⁻⁶ cm/s
- effect on RED parameters (duration, frequency, amplitude) [3]: failed to significantly affect
